Publication PMC4797285 (Nucleic Acids Research, 2016)

Legend:
[1] = test system: ribosome on the mRNA (PURExpress in vitro protein synthesis kit); experiment: Toe-printing assay; assay type: biochemical; settings: for Position of ribosome stalling in toe-print: 100 μM thiostrepton, 50 μM clindamycin
[2] = test system: ribosomes translating 2XErmBL mRNA (RTS 100 E. coli HY Kit); experiment: Disome formation assay; assay type: biochemical, Escherichia coli; settings: 20 μM erythromycin, positive control

| Compound | Position of ribosome stalling in toe-print [1] | other results |
| --- | --- | --- |
| C=C(NC(=O)C(=C)NC(=O)c1csc(C2=N[C@@H]3c4csc(n4)[C@H]4NC(=O)c5csc(n5)[C@H]([C@](C)(O)[C@@H](C)O)NC(=O)[C@H]5CSC(=N5)/C(=C/C)NC(=O)[C@H]([C@@H](C)O)NC(=O)c5csc(n5)[C@]3(CC2)NC(=O)[C@H](C)NC(=O)C(=C)NC(=O)[C@H](C)NC(=O)[C@H]([C@@H](C)CC)N[C@@H]2C=Cc3c([C@H](C)O)cc(nc3[C@H]2O)C(=O)O[C@@H]4C)n1)C(N)=O [thiostrepton] | ribosomes accumulated at the AUG codon |  |
| RRIRPRPPRLPRPRPR [Bac7(1–16)] |  | Toeprint for ribosomes stalled during initiation ([1]; 100 μM peptide, signal for full-length mRNA became stronger, similar to edeine): became weaker |
| CC[C@H]1OC(=O)[C@H](C)[C@@H](O[C@H]2C[C@@](C)(OC)[C@@H](O)[C@H](C)O2)[C@H](C)[C@@H](O[C@@H]2O[C@H](C)C[C@H](N(C)C)[C@H]2O)[C@](C)(O)C[C@@H](C)C(=O)[C@H](C)[C@@H](O)[C@]1(C)O [erythromycin] |  | Disome formation (translation arrest) [2]: generating the expected disome peaks |
| CCC[C@@H]1C[C@@H](C(=O)N[C@@H]([C@H]2O[C@H](SC)[C@H](O)[C@@H](O)[C@H]2O)[C@H](C)Cl)N(C)C1 [clindamycin] | ribosomes accumulated at the AUG codon |  |
